In patent EP3720857B1, “2-OXO-5H-CHROMENO[4,3-B]PYRIDINES FOR USE IN THE TREATMENT OF HEPATITIS B” (Galapagos NV, priority 2017, dated 2019):
pIC50: −log10 of the molar value.

system: hepatitis virus B (HBV) infection; experiment: HepG2 NTCP assay (HBcAg staining as marker of HBV infection); assay type: cell-based; details: HepG2-NTCP cells infected with HBV, HBV core antigen (HBcAg) as marker of infection
Source text: The principle of the hepG2-NTCP assay is to measure the effect of a test compound on the inhibition of the hepatitis virus B (HBV) infection compared to a reference compound. To be able to infect the hepatocellular carcinoma cells (HepG2) with HBV, HepG2 cells were stably transfected with the Na+-taurocholate co-transporting polypeptide (NTCP) receptor, also referred to as Sodium/bile acid cotransporter (SLC10A1), which is necessary for HBV infection. In this assay the HBV core antigen (HBcAg) is used as a marker of HBV infection. Nuclei count is used as an indication for compound toxicity.
On day one, HepG2-NTCP cells ((Ni et al., 2014)) are seeded at 5000 cells in 50 µL per well in assay medium (DMEM high glucose supplemented with 10% non-heat inactivated (non HI) fetal bovine serum (FBS), 1% P/S, 1% L-glutamine and 1% MEM NEAA) in 384 well plate and incubated at 37°C, 5% CO2 overnight.
Compounds are prepared as 10 point serial dilutions using 1/3 dilution steps in 100% DMSO starting from 10 mM highest concentration, unless otherwise requested for very potent compounds, which started from 5mM or 1mM stock. Compounds are further diluted 1/500 in assay medium.
A negative control (vehicle: 24 wells with 0.2% DMSO) and positive control (24 wells with 100nM Myrcludex B (Cas no.: 406461-66-3), 0.2% DMSO and in 10 point DR) are included in the experiments.
On the second day, 40µl medium is removed from the cells with the plate washer (Select 405 microplate washer, Biotek). 15 µL of diluted compound series is transferred to the assay plate and cells are infected with 15 µL of HBV mix (HBV virus, 4%PEG, 1%DMSO in assay medium). The infection is performed in assay medium containing final concentration of 1% DMSO. The assay plate is incubated at 37°C, 5% CO2 overnight.
The next day, 30µl compound and HBV mix are removed from the assay plate with the plate washer and 30 µL of compound series diluted 1/500 in assay medium containing final concentration of 2.5% DMSO is added to the cell assay plate. The assay plate is incubated at 37°C, 5% CO2 for 5 days.
After 5 days of incubation, supernatant is removed from the cells with the plate washer. Cells are fixed with 50 µL of 3.7% formaldehyde added with the Well mate (Matrix technologies) and incubated for 30 min at room temperature. After fixation, cells are washed four times with phosphate buffer saline (1xPBS, 137mM NaCl, 10mM na2HPO4, 2.7mM KCl, 1.8mM KH2PO4 at pH7.4). The cells are finally subjected to HBc staining.
First, the assay plate is blocked with blocking buffer (2%FBS, 3% BSA, 0.2% TritonX100 in PBS) for 1 h at room temperature (optional to block overnight at 4°C).
After 4 washes of PBST (1XPBS + 0.05% Tween) with the plate washer, the assay plate is incubated with 30 µL diluted primary antibody (1/700 Rabbit anti-HBV core antigen, Dako, B0586 or 1/350 Rabbit anti HBV core antigen, Invitrogen, PA516368) in blocking buffer and incubated for 90 min at room temperature.
After 4 washes of PBST with the plate washer, the assay plate is incubated with 50 µL of secondary antibody (Donkey-anti-rabbit Alexa 488 antibody, Lifetechnologies A21206) 1/500 diluted in blocking buffer and incubated for 60 min at room temperature and in the dark.
The assay plate is washed 4 times with PBST on the plate washer and incubated with 50µL of DAPI (Sigma D9542, stock 5mg/mL) 1/10000 diluted in PBS for 15-30 min at room temperature and in the dark. The assay plate is now ready for read out on the InCell Analyzer 2200 (GE Healthcare).
Raw data are generated following read-out performed on InCell 2200 and are imported into the galapagos LIMS for automated calculation of percentage inhibition (PIN) and toxicity by nuclei count, using the control wells mentioned above, and creation of Dose Response curves. Table V. Hepg2 NTCP assay activity of illustrative compounds of the invention

Row | SMILES | pIC50
1 | COCCCOc1cc2c(cc1Cl)-c1c(cc(C(=O)O)c(=O)n1C1CC(F)(F)C1)C(C(C)C)O2 (stereo not drawn) [Compound 23, 9-chloro-1-(3,3-difluorocyclobuty 1)-5-isopropyl-8-(3-methoxypropoxy) -2-oxo-5H-chromeno[4,3-b]pyridine-3-carboxylic acid] | 7.70 to 9.00
2 | COc1cc2c(cc1OC)-c1c(cc(C(=O)O)c(=O)n1C1CC1)C(CSC)O2 (stereo not drawn) [Compound 74, 1-cyclopropyl-8,9-dimethoxy-5-(methylsulfanylmethyl)-2-oxo-5H-chromeno[4,3-b]pyridine-3-carboxylic acid] | < 7.00
3 | COCCCOc1cc2c(cc1S(C)(=O)=O)-c1c(cc(C(=O)O)c(=O)n1C1CC1)C(C(C)C)O2 (stereo not drawn) [Compound 63, 1-cyclopropyl-5-isopropyl-8-(3-methoxypropoxy) -9-methylsulfonyl-2-oxo-5H-chromeno[4,3-b]pyridine-3-carboxylic acid] | 7.70 to 9.00
4 | CC(C)C1Oc2cc(OCC3COC3)c(F)cc2-c2c1cc(C(=O)O)c(=O)n2C1CC1 (stereo not drawn) [Compound 64, 1-cyclopropyl-9-fluoro-5-isopropyl-8-(oxetan-3-ylmethoxy)-2-oxo-5H-chromeno[4,3-b]pyridine-3-carboxylic acid] | 7.70 to 9.00
5 | O=C(O)c1cc2c(n(C3CC3)c1=O)-c1cc(F)c(F)cc1OC2 [Compound 59, 1-cyclopropyl-8,9-difluoro-2-oxo-5H-chromeno[4,3-b]pyridine-3-carboxylic acid] | < 7.00
6 | CC1(C2Oc3cc(OCC(F)(F)F)c(Cl)cc3-c3c2cc(C(=O)O)c(=O)n3C2CC2)COC1 (stereo not drawn) [Compound 68, 9-chloro-1-cyclopropyl-5-(3-methyloxetan-3-yl)-2-oxo-8-(2,2,2-trifluoroethoxy)-5H-chromeno[4,3-b]pyridine-3-carboxylic acid] | 9.00 to 12.00
7 | COc1cc2c(cc1OCc1ccccc1)OC(C(C)C)c1cc(C(=O)O)c(=O)n(C3CC3)c1-2 (stereo not drawn) [Compound 41, 8-benzyloxy-1-cyclopropyl-5-isopropyl-9-methoxy-2-oxo-5H-chromeno[4,3-b]pyridine-3-carboxylic acid] | < 7.00
8 | O=C(O)c1cc2c(n(C3CC3)c1=O)-c1cc(Cl)c(F)cc1OC2 [Compound 60, 9-chloro-1-cyclopropyl-8-fluoro-2-oxo-5H-chromeno[4,3-b]pyridine-3-carboxylic acid] | < 7.00
9 | COc1cc2c(cc1OCC1(C#N)CCC1)OC(C(C)C)c1cc(C(=O)O)c(=O)n(C3CC3)c1-2 (stereo not drawn) [Compound 43, 8-[(1-cyanocyclobutyl)methoxy]-1-cyclopropyl-5-isopropyl-9-methoxy-2-oxo-5H-chromeno[4,3-b]pyridine-3-carboxylic acid] | 7.70 to 9.00
10 | COCCCOc1cc2c(cc1Cl)-c1c(cc(C(=O)O)c(=O)n1C1CC1)C(C1CCOC1)O2 (stereo not drawn) [Compound 53, 9-chloro-1-cyclopropyl-8-(3-methoxypropoxy) -2-oxo-5-tetrahydrofuran-3-yl-5H-chromeno[4,3-b]pyridine-3-carboxylic acid] | 9.00 to 12.00
11 | COc1cc2c(cc1OCC1CNC(=O)O1)OC(C(C)C)c1cc(C(=O)O)c(=O)n(C3CC3)c1-2 (stereo not drawn) [Compound 35, 1-cyclopropyl-5-isopropyl-9-methoxy-2-oxo-8-[(2-oxooxazolidin-5-yl)methoxy]-5H-chromeno[4,3-b]pyridine-3-carboxylic acid] | 7.00 to 7.70
12 | CC(C)C1Oc2cc(OCC3COCCO3)c(Cl)cc2-c2c1cc(C(=O)O)c(=O)n2C1CC1 (stereo not drawn) [Compound 7, 9-chloro-1-cyclopropyl-8-(1,4-dioxan-2-ylmethoxy)-5-isopropyl-2-oxo-5H-chromeno[4,3-b]pyridine-3-carboxylic acid] | 9.00 to 12.00
13 | COc1cc2c(cc1OCCCC#N)OC(C(C)C)c1cc(C(=O)O)c(=O)n(C3CC3)c1-2 (stereo not drawn) [Compound 30, 8-(3-cyanopropoxy)-1-cyclopropyl-5-isopropyl-9-methoxy-2-oxo-5H-chromeno[4,3-b]pyridine-3-carboxylic acid] | 7.70 to 9.00
14 | CC1(C2Oc3cc(OCC4CC4)c(Cl)cc3-c3c2cc(C(=O)O)c(=O)n3C2CC2)COC1 (stereo not drawn) [Compound 57, 9-chloro-1-cyclopropyl-8-(cyclopropylmethoxy)-5-(3-methyloxetan-3-yl)-2-oxo-5H-chromeno[4,3-b]pyridine-3-carboxylic acid] | 7.70 to 9.00
15 | CC(C)C1Oc2cc(OCC3(C)COC3)c(F)cc2-c2c1cc(C(=O)O)c(=O)n2C1CC1 (stereo not drawn) [Compound 65, 1-cyclopropyl-9-fluoro-5-isopropyl-8-[(3-methyloxetan-3-yl)methoxy]-2-oxo-5H-chromeno[4,3-b]pyridine-3-carboxylic acid] | 9.00 to 12.00
16 | CCOCCOc1cc2c(cc1OC)-c1c(cc(C(=O)O)c(=O)n1C1CC1)C(C(C)C)O2 (stereo not drawn) [Compound 42, 1-cyclopropyl-8-(2-ethoxyethoxy)-5-isopropyl-9-methoxy-2-oxo-5H-chromeno[4,3-b]pyridine-3-carboxylic acid] | 7.70 to 9.00
17 | COc1cc2c(cc1OCC1(C)COC1)OC(C(C)C)c1cc(C(=O)O)c(=O)n(C3CC3)c1-2 (stereo not drawn) [Compound 28, 1-cyclopropyl-5-isopropyl-9-methoxy-8-[(3-methyloxetan-3-yl)methoxy]-2-oxo-5H-chromeno[4,3-b]pyridine-3-carboxylic acid] | 7.70 to 9.00
18 | CC(C)C1Oc2cc(OCC3(C)COC3)c(Cl)cc2-c2c1cc(C(=O)O)c(=O)n2C1CC1 (stereo not drawn) [Compound 52, 9-chloro-1-cyclopropyl-5-isopropyl-8-[(3-methyloxetan-3-yl)methoxy]-2-oxo-5H-chromeno[4,3-b]pyridine-3-carboxylic acid] | 9.00 to 12.00
19 | [2H]C1([2H])C(n2c3c(cc(C(=O)O)c2=O)C(C2(C)COC2)Oc2cc(OCCCOC)c(F)cc2-3)C1([2H])[2H] (stereo not drawn) [Compound 27, 9-fluoro-8-(3-methoxypropoxy) -5-(3-methyloxetan-3-yl)-2-oxo-1-(2,2,3,3-tetradeuteriocyclopropyl)-5H-chromeno[4,3-b]pyridine-3-carboxylic acid] | 9.00 to 12.00
20 | COCCCOc1cc2c(cc1Cl)-c1c(cc(C(=O)O)c(=O)n1C1CCC1)C(C1(C)COC1)O2 (stereo not drawn) [Compound 48, 9-chloro-1-cyclobutyl-8-(3-methoxypropoxy) -5-(3-methyloxetan-3-yl)-2-oxo-5H-chromeno[4,3-b]pyridine-3-carboxylic acid] | 9.00 to 12.00
21 | COc1cc2c(cc1OCC1CN(S(C)(=O)=O)C1)OC(C(C)C)c1cc(C(=O)O)c(=O)n(C3CC3)c1-2 (stereo not drawn) [Compound 32, 1-cyclopropyl-5-isopropyl-9-methoxy-8-[(1-methylsulfonylazetidin-3-yl)methoxy]-2-oxo-5H-chromeno[4,3-b]pyridine-3-carboxylic acid] | 7.70 to 9.00
22 | COCCCOc1cc2c(cc1Cl)-c1c(cc(C(=O)O)c(=O)n1C1CC1)C(C1CCOCC1)O2 (stereo not drawn) [Compound 54, 9-chloro-1-cyclopropyl-8-(3-methoxypropoxy) -2-oxo-5-tetrahydropyran-4-yl-5H-chromeno[4,3-b]pyridine-3-carboxylic acid] | 9.00 to 12.00
23 | O=C(O)c1cc2c(n(C3CC3)c1=O)-c1cc(Cl)c(Cl)cc1OC2 [Compound 61, 8,9-dichloro-1-cyclopropyl-2-oxo-5H-chromeno[4,3-b]pyridine-3-carboxylic acid] | 7.70 to 9.00
24 | COc1cc2c(cc1OCC(C)C)OC(C(C)C)c1cc(C(=O)O)c(=O)n(C3CC3)c1-2 (stereo not drawn) [Compound 38, 1-cyclopropyl-8-isobutoxy-5-isopropyl-9-methoxy-2-oxo-5H-chromeno[4,3-b]pyridine-3-carboxylic acid] | 7.70 to 9.00
